# Measurements as given in patent US20250346845A1, “CELL-[…]” (TOPPAN HOLDINGS INC., priority 2023, published 2025).
# Key:
# Format in all cases: cell-based, human
# Settings in all cases: drug added day 4, read day 7, general-purpose medium
# HT29 cells [1] = assay: Anti-cancer drug evaluation, HT29 cells cultured using stromal stamp, ATP assay
# Description: HT29 (ATCC, HTB-38), a human colon adenocarcinoma cell line, was seeded in the third vessel (24-well plate) in Table 3 above at 1×10^3 cells/well. The stromal stamp prepared in Example 1 was then placed on each well.
# On the fourth day after the start of the culture, an anti-cancer drug SN-38 (Selleck, S4908) was added to the medium in each well at a concentration of 0, 0.01, 0.1, 1 or 10 μM. On the seventh day after the start of culture, the stromal stamps were removed and the number of HT29 cells was counted by ATP assay. The cell viability was calculated using the following formula (2) to evaluate the drug efficacy.
# HT29 cells [2] = assay: Anti-cancer drug evaluation, HT29 cells on stromal cell layer, 3D culture method, EpCAM immunofluorescence
# Description: 2.0×10^6 NHDFs and 3.0×10^4 HUVECs were suspended in an equal volume mixture of 150 μL of 0.2 mg/mL heparin/50 mM Tris-HCl buffer (pH 7.4) and 150 μL of 0.2 mg/mL collagen/5 mM acetate solution (pH 3.7). The resulting mixture was centrifuged at 1,000×g for 1 minute at room temperature to obtain a viscous mass. The obtained viscous mass was suspended in DMEM containing 10% FBS. The entire suspension was seeded in a 24-well Transwell culture insert and centrifuged at 400×g (gravitational acceleration) at room temperature for 1 minute. As a result, a cell layer (i.e., a cell layer containing cells forming the stroma) was formed on the membrane of the Transwell culture insert.
# Subsequently, HT29 cells were seeded on the cell layer at 1×10^3 cells/well and cultured in the general-purpose medium shown in Table 4 above. On the fourth day after the start of the culture, an anti-cancer drug SN-38 (Selleck, S4908) was added to the medium in each well at a concentration of 0, 0.01, 0.1, 1 or 10 μM.
# On the seventh day after the start of culture, the cells were fixed and stained for EpCAM with immunofluorescence staining, and the stained cells were counted as HT29 cells. More specifically, the area of fluorescence emission from cancer cells was calculated using a microscope system (Operetta CLS, PerkinElmer) in the fluorescence mode (fluorescence: Alexa 647). The cell viability was calculated using the following formula (3) to evaluate the drug efficacy.
# HT29 cells [3] = assay: Anti-cancer drug evaluation, HT29 cells, 2D culture method, ATP assay
# Description: On the fourth day after the start of the culture, an anti-cancer drug SN-38 (Selleck, S4908) was added to the medium in each well at a concentration of 0, 0.01, 0.1, 1 or 10 μM. On the seventh day after the start of culture, the number of HT29 cells was counted by ATP assay. The cell viability was calculated using the above formula (2) to evaluate the drug efficacy.
compound,measurement,setting,value
CCc1c2c(nc3ccc(O)cc13)-c1cc3c(c(=O)n1C2)COC(=O)[C@]3(O)CC [SN-38],Cell viability (%),HT29 cells [1]; 0.01 μM,103.3 ± 14.5%
same,Cell viability (%),HT29 cells [1]; 0.1 μM,72.87 ± 14.57%
same,Cell viability (%),HT29 cells [1]; 1 μM,49.3 ± 13.05%
same,Cell viability (%),HT29 cells [1]; 10 μM,36.5 ± 10.24%
same,Cell viability (%),HT29 cells [2]; 0.01 μM,97.8 ± 20.04%
same,Cell viability (%),HT29 cells [2]; 0.1 μM,72.87 ± 14.57%
same,Cell viability (%),HT29 cells [2]; 1 μM,54.21 ± 13.05%
same,Cell viability (%),HT29 cells [2]; 10 μM,34.2 ± 9.47%
same,Cell viability (%),HT29 cells [3]; 0.01 μM,78.3 ± 9.45%
same,Cell viability (%),HT29 cells [3]; 0.1 μM,54.3 ± 5.45%
same,Cell viability (%),HT29 cells [3]; 1 μM,35 ± 3.24%
same,Cell viability (%),HT29 cells [3]; 10 μM,21.3 ± 4.23%
